The source made the active and inactive calls. No cut-off for these calls is given here.
Assays:
[1] = tested on: Quadruplex DNA; assay: Stabilization of c-MYC G4 quadruplex DNA Pu22 (unknown origin) assessed as change in melting temperature at 2 uM by CD spectroscopy; type: nucleic-acid assay
[2] = biological target: Quadruplex DNA; assay: Binding affinity to c-MYC G4- quadruplex DNA Pu22 (unknown origin) assessed as binding constant by SPR analysis; type: nucleic-acid assay
[3] = Binding affinity to G-rich KRAS DNA (unknown origin) assessed as binding constant by SPR analysis
[4] = Binding affinity to G-rich HRAS DNA (unknown origin) assessed as binding constant by SPR analysis
[5] = Binding affinity to G-rich NRAS RNA (unknown origin) assessed as binding constant by SPR analysis
[6] = Binding affinity to human G-rich Htg22 DNA assessed as binding constant by SPR analysis
[7] = Binding affinity to Hairpin DNA (unknown origin) assessed as binding constant by SPR analysis
[8] = biological target: Quadruplex DNA; assay: Binding affinity to c-MYC G4 quadruplex DNA Pu22 (unknown origin) assessed as binding constant by SPR analysis; type: nucleic-acid assay
[9] = biological target: RNA; assay: Binding affinity to NRAS RNA mutant (unknown origin) assessed as binding constant by SPR analysis
[10] = tested on: HepG2; assay: Cytotoxicity against human HepG2 cells assessed as reduction in cell viability measured after 48 hrs by MTT assay; type: functional, cell-based; conditions: HepG2, 48 h
[11] = tested on: MDA-MB-231; assay: Cytotoxicity against human MDA-MB-231 cells assessed as reduction in cell viability measured after 48 hrs by MTT assay; type: functional, cell-based; conditions: MDA-MB-231, 48 h
[12] = Cytotoxicity against human HBL-100 cells assessed as reduction in cell viability measured after 48 hrs by MTT assay; type: toxicity, cell-based
[13] = tested on: NM23-H2/c-MYC G4 quadruplex DNA; assay: Disruption of NM23-H2/c-MYC G4 quadruplex DNA (unknown origin) interaction incubated for 1 hrs by ELISA; type: protein assay
[14] = tested on: BLM/c-MYC G4 quadruplex DNA; assay: Disruption of BLM/c-MYC G4 quadruplex DNA (unknown origin) interaction incubated for 1 hrs by ELISA; type: protein assay
[15] = tested on: DHX36/c-MYC G4 quadruplex DNA; assay: Disruption of DHX36/c-MYC G4 quadruplex DNA (unknown origin) interaction incubated for 1 hrs by ELISA; type: protein assay
[16] = tested on: MDA-MB-231; assay: Cytotoxicity against human MDA-MB-231 cells measured after 48 hrs; type: functional, cell-based
[17] = tested on: Quadruplex DNA; assay: Inhibition of c-MYC G4 quadruplex DNA in HEK293T cells co-transfected with Renilla and firefly luciferase assessed as decrease in relative luciferase at 2.5 to 5 uM measured after 24 hrs by dual luciferase reporter assay; type: cell-based; conditions: Homo sapiens, dose 2.5-5 µM
[18] = tested on: Quadruplex DNA; assay: Inhibition of c-MYC G4 quadruplex DNA in HEK293T cells co-transfected with Renilla and firefly luciferase assessed as decrease in relative luciferase measured after 24 hrs by dual luciferase reporter assay; type: cell-based; conditions: Homo sapiens
[19] = tested on: MDA-MB-231; assay: Downregulation of c-MYC mRNA level in human MDA-MB-231 cells measured after 24 hrs by RT-PCR analysis; type: functional, cell-based
[20] = tested on: MDA-MB-231; assay: Downregulation of c-MYC expression in human MDA-MB-231 cells measured after 48 hrs by western blot analysis; type: functional, cell-based
[21] = tested on: MCF7; assay: Cytotoxicity against human MCF7 cells measured after 48 hrs; type: functional, cell-based
[22] = tested on: HepG2; assay: Cytotoxicity against human HepG2 cells measured after 48 hrs; type: functional, cell-based
[23] = tested on: SiHa; assay: Cytotoxicity against human SiHa cells measured after 48 hrs; type: functional, cell-based
[24] = tested on: MDA-MB-231; assay: Antitumor activity against human MDA-MB-231 cells xenografted in BALB/c-nu/nu mouse assessed as relative increment ratio at 2.5 mg/kg, ip measured for 24 days; type: functional; conditions: time 24 day
[25] = tested on: MDA-MB-231; assay: Antitumor activity against human MDA-MB-231 cells xenografted in BALB/c-nu/nu mouse assessed as tumor growth inhibition at 2.5 mg/kg, ip measured for 24 days; type: functional; conditions: MDA-MB-231, 576 h, time 24 day, read-out: TGI
[26] = tested on: Quadruplex DNA; assay: Inhibition of c-MYC G4 quadruplex DNA mutant in HEK293T cells co-transfected with Renilla and firefly luciferase assessed as decrease in relative luciferase at 2.5 to 5 uM measured after 24 hrs by dual luciferase reporter assay; type: cell-based; conditions: Homo sapiens, dose 2.5-5 µM
[27] = tested on: MDA-MB-231; assay: Downregulation of VEGF expression in human MDA-MB-231 cells measured after 48 hrs by western blot analysis; type: functional, cell-based

SMILES | ΔTm [1] | Kd [2] | Kd [3] | Kd [4] | Kd [5] | Kd [6] | Kd [7] | Kd [8] | Kd [9] | IC50 [10] | IC50 [11] | other results
CCn1c2ccccc2c2cc(-c3nc(-c4ccc(N5CCN(C)CC5)cc4)c(-c4ccc(N5CCN(C)CC5)cc4)n3-c3ccc(OC)cc3)ccc21 | 12.5 °C | 7 µM | 15.1 µM | 15.1 µM | > 20 µM | > 20 µM | > 20 µM | > 20 µM | > 20 µM | 6.1 µM | 5.1 µM | IC50 at 48 h [12]: 11.2 µM; IC50 [13]: 25.8 µM; IC50 [14]: 14.6 µM; IC50 [15]: 5 µM; Activity [16]: Active; inhibition [17]: Active; Activity [18]: Active; Activity [19]: Active; Activity [20]: Active; Activity [21]: Active; Activity [22]: Active; Activity [23]: Active; Activity [24]: 72.3%; inhibition in vivo at 2.5 mg/kg [25]: 55.5%
CCn1c2ccccc2c2cc(-c3nc(-c4ccc(N5CCN(C)CC5)cc4)c(-c4ccc(N5CCN(C)CC5)cc4)n3-c3ccc(OCCOCCO)cc3)ccc21 | 20.8 °C | 2.6 µM | 8.2 µM | 5.9 µM | 15.8 µM | > 20 µM | > 20 µM | > 20 µM | > 20 µM | – | – | IC50 [13]: 1.1 µM; IC50 [14]: 3.9 µM; IC50 [15]: 8.2 µM
COc1ccc(-n2c(-c3ccc4c(c3)c3ccccc3n4Cc3cn(CCOCCO[C@@H]4O[C@H](COC(C)=O)[C@@H](OC(C)=O)[C@H](OC(C)=O)[C@H]4OC(C)=O)nn3)nc(-c3ccc(N4CCN(C)CC4)cc3)c2-c2ccc(N3CCN(C)CC3)cc2)cc1 | 15.9 °C | 3 µM | > 20 µM | > 20 µM | > 20 µM | > 20 µM | > 20 µM | > 20 µM | > 20 µM | 11 µM | 6.4 µM | IC50 at 48 h [12]: 19.3 µM
Cc1sc2c(c1C)C(c1ccc(Cl)cc1)=NC(CC(=O)OC(C)(C)C)c1nnc(C)n1-2 (configuration not stated) | – | – | – | – | – | – | – | – | – | – | – | inhibition [17]: Active; Activity [18]: Active; Activity [26]: Active; Activity [19]: Active; Activity [20]: Active; Activity [27]: Active
CCn1c2ccccc2c2cc(-c3nc(-c4ccc(N5CCN(C)CC5)cc4)c(-c4ccc(N5CCN(C)CC5)cc4)n3-c3ccc(OCCOCCOC4(C)O[C@H]5O[C@H](COC(C)=O)[C@@H](OC(C)=O)[C@H](OC(C)=O)[C@H]5O4)cc3)ccc21 (single isomer, unassigned) | 22.1 °C | 1.8 µM | 12.7 µM | 13.9 µM | > 20 µM | > 20 µM | > 20 µM | > 20 µM | > 20 µM | 3 µM | 2.9 µM | IC50 at 48 h [12]: 77.8 µM; IC50 [13]: 3.7 µM; IC50 [14]: 6.8 µM; IC50 [15]: 15.9 µM
CCn1c2ccccc2c2cc(-c3nc(-c4ccc(N5CCN(C)CC5)cc4)c(-c4ccc(N5CCN(Cc6cn(CCOCCO[C@@H]7O[C@H](CO)[C@@H](O)[C@H](O)[C@H]7O)nn6)CC5)cc4)[nH]3)ccc21 (single isomer, unassigned) | 19.2 °C | 1.7 µM | 4.8 µM | 2.5 µM | 11.7 µM | > 20 µM | > 20 µM | > 20 µM | > 20 µM | – | – | –
CCn1c2ccccc2c2cc(-c3nc(-c4ccc(N5CCN(C)CC5)cc4)c(-c4ccc(N5CCN(C)CC5)cc4)n3-c3ccc(OCCCOC4(C)O[C@H]5O[C@H](COC(C)=O)[C@@H](OC(C)=O)[C@H](OC(C)=O)[C@H]5O4)cc3)ccc21 (single isomer, unassigned) | 16 °C | 4.1 µM | > 20 µM | > 20 µM | > 20 µM | > 20 µM | > 20 µM | > 20 µM | > 20 µM | 7.8 µM | 3.6 µM | IC50 at 48 h [12]: 4.4 µM
CCn1c2ccccc2c2cc(-c3nc(-c4ccc(N5CCN(C)CC5)cc4)c(-c4ccc(N5CCN(C)CC5)cc4)n3-c3ccc(OCCOCCO[C@@H]4O[C@H](CO)[C@@H](O)[C@H](O)[C@H]4O)cc3)ccc21 (single isomer, unassigned) | 18 °C | 1.6 µM | > 20 µM | > 20 µM | > 20 µM | > 20 µM | > 20 µM | > 20 µM | > 20 µM | > 32 µM | > 32 µM | –
CCn1c2ccccc2c2cc(-c3nc(-c4ccc(N5CCN(C)CC5)cc4)c(-c4ccc(N5CCN(C)CC5)cc4)n3-c3ccc(OCCCO[C@@H]4O[C@H](CO)[C@@H](O)[C@H](O)[C@H]4O)cc3)ccc21 (single isomer, unassigned) | 16.7 °C | 1.8 µM | 15 µM | 14.3 µM | > 20 µM | > 20 µM | > 20 µM | > 20 µM | > 20 µM | > 32 µM | > 32 µM | –
CCn1c2ccccc2c2cc(-c3nc(-c4ccc(N5CCN(C)CC5)cc4)c(-c4ccc(N5CCN(C)CC5)cc4)n3-c3ccc(OCCOCCO[C@@H]4O[C@H](CO)[C@@H](O)[C@H](O)[C@H]4NC(=O)C(F)(F)F)cc3)ccc21 (single isomer, unassigned) | 16.3 °C | 4.1 µM | 17.9 µM | 19.9 µM | 16.1 µM | > 20 µM | > 20 µM | > 20 µM | > 20 µM | > 32 µM | > 32 µM | –
CCn1c2ccccc2c2cc(-c3nc(-c4ccc(N5CCN(C)CC5)cc4)c(-c4ccc(N5CCN(Cc6cn(CCOCCO[C@@H]7O[C@H](COC(C)=O)[C@@H](OC(C)=O)[C@H](OC(C)=O)[C@H]7OC(C)=O)nn6)CC5)cc4)[nH]3)ccc21 (single isomer, unassigned) | 17.8 °C | 1 µM | 17.2 µM | 8.2 µM | > 20 µM | > 20 µM | > 20 µM | > 20 µM | > 20 µM | > 32 µM | > 32 µM | –
CCn1c2ccccc2c2cc(-c3nc(-c4ccc(N5CCN(C)CC5)cc4)c(-c4ccc(N5CCN(Cc6cn([C@@H]7O[C@H](CO)[C@H](O)[C@H](O)[C@H]7O)nn6)CC5)cc4)[nH]3)ccc21 (single isomer, unassigned) | 18.4 °C | 1.6 µM | 5.8 µM | 2.7 µM | 9.9 µM | > 20 µM | > 20 µM | > 20 µM | > 20 µM | – | – | –
CCn1c2ccccc2c2cc(-c3nc(-c4ccc(N5CCN(C)CC5)cc4)c(-c4ccc(N5CCN(C)CC5)cc4)n3-c3ccc(OCCCO[C@@H]4O[C@H](CO)[C@H](O)[C@H](O)[C@H]4O)cc3)ccc21 (single isomer, unassigned) | 16.9 °C | 1.4 µM | > 20 µM | 16.6 µM | > 20 µM | > 20 µM | > 20 µM | > 20 µM | > 20 µM | > 32 µM | > 32 µM | –
COc1ccc(-n2c(-c3ccc4c(c3)c3ccccc3n4Cc3cn(CCOCCO[C@@H]4O[C@H](CO)[C@@H](O)[C@H](O)[C@H]4O)nn3)nc(-c3ccc(N4CCN(C)CC4)cc3)c2-c2ccc(N3CCN(C)CC3)cc2)cc1 (single isomer, unassigned) | 17.7 °C | 2.2 µM | 17.8 µM | 15.5 µM | 19.2 µM | > 20 µM | > 20 µM | > 20 µM | > 20 µM | > 32 µM | > 32 µM | –
CCn1c2ccccc2c2cc(-c3nc(-c4ccc(N5CCN(C)CC5)cc4)c(-c4ccc(N5CCN(C)CC5)cc4)n3-c3ccc(OCCOCCO[C@@H]4O[C@H](CO)[C@H](O)[C@H](O)[C@H]4O)cc3)ccc21 (single isomer, unassigned) | 16.2 °C | 2 µM | 18.2 µM | 14.4 µM | 16.4 µM | > 20 µM | > 20 µM | > 20 µM | > 20 µM | > 32 µM | > 32 µM | –

Source: ChEMBL document CHEMBL5104180, “Design, Synthesis, and Evaluation of New Sugar-Substituted Imidazole Derivatives as Selective c-MYC Transcription Repressors Targeting the Promoter G-Quadruplex” (J Med Chem, 2022)
